Laboratory results from PubChem BioAssay AID1963838 (Molecular Pharmacology Branch, DTP, NCI, 2024).
pIC50: −log10 of the molar value.

Tested on: 855422-203-R-J1-PDC complex spheroid viability
Assay: Anticancer human tumor 855422-203-R-J1-PDC patient-derived bladder carcinoma cell line growth inhibition [POLQ]
Conditions: for pIC50: curve of first compound; for viability, T/C: stronger effect = lower value; active = viability on the fitted dose curve at most 10% of control; inactive = the rest
Method in brief: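 Complex spheroid viability model combining PDC tumour cells with endothelial (HUVEC) and MSC stromal cells. Novobiocin, ART-558 or RP6685 were tested singly and in combination with standard and investigational anticancer drugs. Each was titrated in half-log steps from near clinical Cmax, or from 10 microM where Cmax was unknown.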

[1] = second compound 0.0316 µM, first compound 0.0316 µM
[2] = second compound 0.0316 µM, first compound 0.1 µM
[3] = second compound 0.0316 µM, first compound 0.316 µM
[4] = second compound 0.0316 µM, first compound 1 µM
[5] = second compound 0.0316 µM, first compound 3.16 µM
[6] = second compound 0.0316 µM, first compound 10 µM
[7] = second compound 0.1 µM, first compound 0.0316 µM
[8] = second compound 0.1 µM, first compound 0.1 µM
[9] = second compound 0.1 µM, first compound 0.316 µM
[10] = second compound 0.1 µM, first compound 1 µM
[11] = second compound 0.1 µM, first compound 3.16 µM
[12] = second compound 0.1 µM, first compound 10 µM
[13] = second compound 0.316 µM, first compound 0.0316 µM
[14] = second compound 0.316 µM, first compound 0.1 µM
[15] = second compound 0.316 µM, first compound 0.316 µM
[16] = second compound 0.316 µM, first compound 1 µM
[17] = second compound 0.316 µM, first compound 3.16 µM
[18] = second compound 0.316 µM, first compound 10 µM
[19] = second compound 1 µM, first compound 0.0316 µM
[20] = second compound 1 µM, first compound 0.1 µM
[21] = second compound 1 µM, first compound 0.316 µM
[22] = second compound 1 µM, first compound 1 µM
[23] = second compound 1 µM, first compound 3.16 µM
[24] = second compound 1 µM, first compound 10 µM
[25] = second compound 3.16 µM, first compound 0.0316 µM
[26] = second compound 3.16 µM, first compound 0.1 µM
[27] = second compound 3.16 µM, first compound 0.316 µM
[28] = second compound 3.16 µM, first compound 1 µM
[29] = second compound 3.16 µM, first compound 3.16 µM
[30] = second compound 3.16 µM, first compound 10 µM
[31] = second compound 10 µM, first compound 0.0316 µM
[32] = second compound 10 µM, first compound 0.1 µM
[33] = second compound 10 µM, first compound 0.316 µM
[34] = second compound 10 µM, first compound 1 µM
[35] = second compound 10 µM, first compound 3.16 µM
[36] = second compound 10 µM, first compound 10 µM
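Also: spheroids exposed to compounds for seven days before readout.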

C=CC(=O)N1CCN(c2nc(=O)n(-c3c(C)ccnc3C(C)C)c3nc(-c4c(O)cccc4F)c(F)cc23)C(C)C1 (stereo not drawn) + COC1C(OC(N)=O)C(O)C(Oc2ccc3c(O)c(NC(=O)c4ccc(O)c(CC=C(C)C)c4)c(=O)oc3c2C)OC1(C)C
inactive: viability, T/C [1] 110% | viability, T/C [2] 106% | viability, T/C [3] 106% | viability, T/C [4] 111% | viability, T/C [5] 123% | viability, T/C [6] 120% | viability, T/C [7] 95% | viability, T/C [8] 111% | viability, T/C [9] 108% | viability, T/C [10] 123% | viability, T/C [11] 123% | viability, T/C [12] 116% | viability, T/C [13] 111% | viability, T/C [14] 123% | viability, T/C [15] 111% | viability, T/C [16] 114% | viability, T/C [17] 128% | viability, T/C [18] 114% | viability, T/C [19] 119% | viability, T/C [20] 120% | viability, T/C [21] 114% | viability, T/C [22] 119% | viability, T/C [23] 121% | viability, T/C [24] 129% | viability, T/C [25] 116% | viability, T/C [26] 108% | viability, T/C [27] 108% | viability, T/C [28] 113% | viability, T/C [29] 121% | viability, T/C [30] 128% | viability, T/C [31] 109% | viability, T/C [32] 111% | viability, T/C [33] 106% | viability, T/C [34] 103% | viability, T/C [35] 122% | viability, T/C [36] 111%
< 5.00: pIC50 (second compound 0.0316 µM) | pIC50 (second compound 0.1 µM) | pIC50 (second compound 0.316 µM) | pIC50 (second compound 1 µM) | pIC50 (second compound 3.16 µM) | pIC50 (second compound 10 µM)

CC(C)n1c(=O)n(C)c2cnc3cc(F)c(-c4ccc(OCCCN5CCCCC5)nc4)cc3c21 + COC1C(OC(N)=O)C(O)C(Oc2ccc3c(O)c(NC(=O)c4ccc(O)c(CC=C(C)C)c4)c(=O)oc3c2C)OC1(C)C
inactive: viability, T/C [1] 97.6% | viability, T/C [2] 92.7% | viability, T/C [3] 89.8% | viability, T/C [4] 89.1% | viability, T/C [5] 84.7% | viability, T/C [6] 70.3% | viability, T/C [7] 84.4% | viability, T/C [8] 110% | viability, T/C [9] 88.1% | viability, T/C [10] 91.9% | viability, T/C [11] 79.6% | viability, T/C [12] 75.3% | viability, T/C [13] 92.6% | viability, T/C [14] 100% | viability, T/C [15] 89.8% | viability, T/C [16] 102% | viability, T/C [17] 87.8% | viability, T/C [18] 65.9% | viability, T/C [19] 104% | viability, T/C [20] 104% | viability, T/C [21] 96.2% | viability, T/C [22] 98.1% | viability, T/C [23] 81.2% | viability, T/C [24] 74% | viability, T/C [25] 106% | viability, T/C [26] 95% | viability, T/C [27] 98.2% | viability, T/C [28] 79.1% | viability, T/C [29] 83.5% | viability, T/C [30] 69.7% | viability, T/C [31] 104% | viability, T/C [32] 92.5% | viability, T/C [33] 93.9% | viability, T/C [34] 98.1% | viability, T/C [35] 83% | viability, T/C [36] 68.7%
< 5.00: pIC50 (second compound 0.0316 µM) | pIC50 (second compound 0.1 µM) | pIC50 (second compound 0.316 µM) | pIC50 (second compound 1 µM) | pIC50 (second compound 3.16 µM) | pIC50 (second compound 10 µM)

COc1cc2cc(C(=O)CCC(=O)O)sc2cc1OC + COC1C(OC(N)=O)C(O)C(Oc2ccc3c(O)c(NC(=O)c4ccc(O)c(CC=C(C)C)c4)c(=O)oc3c2C)OC1(C)C
inactive: viability, T/C [1] 105% | viability, T/C [2] 97.2% | viability, T/C [3] 115% | viability, T/C [4] 106% | viability, T/C [5] 99.8% | viability, T/C [6] 101% | viability, T/C [7] 83.2% | viability, T/C [8] 111% | viability, T/C [9] 105% | viability, T/C [10] 98.8% | viability, T/C [11] 111% | viability, T/C [12] 88.2% | viability, T/C [13] 115% | viability, T/C [14] 101% | viability, T/C [15] 110% | viability, T/C [16] 106% | viability, T/C [17] 113% | viability, T/C [18] 101% | viability, T/C [19] 104% | viability, T/C [20] 105% | viability, T/C [21] 90.5% | viability, T/C [22] 109% | viability, T/C [23] 99.5% | viability, T/C [24] 94.6% | viability, T/C [25] 98% | viability, T/C [26] 102% | viability, T/C [27] 110% | viability, T/C [28] 111% | viability, T/C [29] 114% | viability, T/C [30] 86.4% | viability, T/C [31] 104% | viability, T/C [32] 107% | viability, T/C [33] 105% | viability, T/C [34] 104% | viability, T/C [35] 95.7% | viability, T/C [36] 82.8%
< 5.00: pIC50 (second compound 0.0316 µM) | pIC50 (second compound 0.1 µM) | pIC50 (second compound 0.316 µM) | pIC50 (second compound 1 µM) | pIC50 (second compound 3.16 µM) | pIC50 (second compound 10 µM)

COc1ccc([C@@H](O)c2cc(-c3ncnc4cc(N5CCOCC5)ccc34)c(F)cc2Cl)nn1 + COC1C(OC(N)=O)C(O)C(Oc2ccc3c(O)c(NC(=O)c4ccc(O)c(CC=C(C)C)c4)c(=O)oc3c2C)OC1(C)C
5.18: pIC50 (second compound 0.316 µM)
inactive: viability, T/C [1] 107% | viability, T/C [2] 102% | viability, T/C [3] 95.7% | viability, T/C [4] 81.1% | viability, T/C [5] 71.9% | viability, T/C [6] 37.7% | viability, T/C [7] 90.4% | viability, T/C [8] 113% | viability, T/C [9] 101% | viability, T/C [10] 89.8% | viability, T/C [11] 68.6% | viability, T/C [12] 39.1% | viability, T/C [13] 119% | viability, T/C [14] 121% | viability, T/C [15] 101% | viability, T/C [16] 86.9% | viability, T/C [17] 64.5% | viability, T/C [18] 41.9% | viability, T/C [19] 110% | viability, T/C [20] 108% | viability, T/C [21] 93.8% | viability, T/C [22] 98.7% | viability, T/C [23] 68.7% | viability, T/C [24] 35.3% | viability, T/C [25] 109% | viability, T/C [26] 107% | viability, T/C [27] 106% | viability, T/C [28] 84.8% | viability, T/C [29] 73.2% | viability, T/C [30] 37.2% | viability, T/C [31] 121% | viability, T/C [32] 110% | viability, T/C [33] 110% | viability, T/C [34] 91.2% | viability, T/C [35] 71.7% | viability, T/C [36] 36.9%
5.21: pIC50 (second compound 1 µM)
5.19: pIC50 (second compound 0.0316 µM) | pIC50 (second compound 0.1 µM) | pIC50 (second compound 3.16 µM) | pIC50 (second compound 10 µM)
